Reference: ChEMBL document CHEMBL5727979, “Thiazolidinedione derivative and use thereof” (2020)

Biological target: T1, 15-hydroxyprostaglandin dehydrogenase [NAD(+)] (Homo sapiens, UniProt P15428)
T1 sequence (P15428 whole entry): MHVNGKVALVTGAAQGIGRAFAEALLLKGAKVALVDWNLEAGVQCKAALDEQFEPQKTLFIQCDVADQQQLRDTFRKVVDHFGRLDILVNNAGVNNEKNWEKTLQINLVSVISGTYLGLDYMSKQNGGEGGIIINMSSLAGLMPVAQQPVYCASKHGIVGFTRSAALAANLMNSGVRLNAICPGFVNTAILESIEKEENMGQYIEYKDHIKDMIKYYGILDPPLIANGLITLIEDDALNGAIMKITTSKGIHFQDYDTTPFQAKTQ
Assay: Inhibitory Activity Assay: To confirm whether the compounds according to the present disclosure have an effect of inhibiting 15-PGDH, the NADH, which appears at the wavelength of 340 nm, of Compounds 1 to 105 purified in (1) nm was measured by using fluorescence spectra photometer. That is, the cells were treated with a solution including 50 mM Tris-HCl (pH 7.5), 0.1 mM DTT, 0.25 mM (NAD+), 10 μg of purified 15-PGDH enzyme, 21 μM PGE2. and various concentrations (0.0001 μM to 64 μM) of the derivative compound according to the present disclosure. In this case, the total volume of the solution was 2 ml. Then, the absorbance of the reaction mixture was recorded at the wavelength of 340 nm. To measure the activity of the derivative compounds according to the present disclosure, which is an inhibitor of 15-PGDH, the average value of NADH absorbance at 340 nm at various concentrations was obtained from a standard curve. The results of the 15-PGDH inhibitory activity of the derivative compounds according to the present disclosure are shown in Tables 1 and 2 below.

In order of rising IC50:
1. O=C(CCC1CCCC1)Oc1ccc(/C=C2\SC(=O)NC2=O)c(Cl)c1  0.0508 µM
2. O=C1NC(=O)/C(=C/c2ccc(OC(=O)c3ccccc3)cc2)S1  0.124 µM
3. O=C1NC(=O)/C(=C/c2ccc(OC(=O)C3CCC3)cc2)S1  0.431 µM
